{"source": "BindingDB's records for patent US20250214967", "about": "(Berrybio (Shanghai), 2025)", "biological_target": "Focal adhesion kinase 1 (Homo sapiens, UniProt Q05397)", "sequence (Q05397 whole entry)": "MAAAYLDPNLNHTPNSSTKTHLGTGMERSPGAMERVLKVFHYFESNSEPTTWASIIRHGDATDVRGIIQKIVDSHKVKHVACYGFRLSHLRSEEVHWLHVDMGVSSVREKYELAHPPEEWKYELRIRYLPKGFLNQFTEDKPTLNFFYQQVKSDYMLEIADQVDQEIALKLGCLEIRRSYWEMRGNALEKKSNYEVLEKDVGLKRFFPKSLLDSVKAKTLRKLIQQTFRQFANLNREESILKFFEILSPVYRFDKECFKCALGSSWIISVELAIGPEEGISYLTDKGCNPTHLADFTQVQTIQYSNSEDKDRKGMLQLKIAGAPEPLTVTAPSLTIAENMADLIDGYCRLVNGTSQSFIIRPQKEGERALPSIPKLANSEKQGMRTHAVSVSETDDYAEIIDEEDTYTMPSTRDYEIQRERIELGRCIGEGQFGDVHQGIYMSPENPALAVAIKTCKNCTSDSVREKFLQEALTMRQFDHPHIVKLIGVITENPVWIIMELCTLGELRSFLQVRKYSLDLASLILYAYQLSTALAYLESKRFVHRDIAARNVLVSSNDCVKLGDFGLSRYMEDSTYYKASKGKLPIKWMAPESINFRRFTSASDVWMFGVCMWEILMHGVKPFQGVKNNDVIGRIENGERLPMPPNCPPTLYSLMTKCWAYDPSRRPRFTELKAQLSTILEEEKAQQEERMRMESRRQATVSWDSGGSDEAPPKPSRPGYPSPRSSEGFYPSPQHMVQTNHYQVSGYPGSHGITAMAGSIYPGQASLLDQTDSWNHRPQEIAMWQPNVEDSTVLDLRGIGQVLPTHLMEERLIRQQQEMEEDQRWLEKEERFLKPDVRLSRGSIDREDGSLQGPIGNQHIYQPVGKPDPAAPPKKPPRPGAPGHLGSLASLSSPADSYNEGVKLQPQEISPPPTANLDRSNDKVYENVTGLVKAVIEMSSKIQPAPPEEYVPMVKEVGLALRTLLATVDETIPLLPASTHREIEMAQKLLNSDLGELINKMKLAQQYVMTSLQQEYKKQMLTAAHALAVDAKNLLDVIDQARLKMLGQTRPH", "assay": "FAK Kinase Assay", "experimental": "The inhibitory activity of a compound against FAK was determined in a buffer containing 5 mM HEPES, pH 7.5, 0.01% Triton, 0.5 mM EGTA, and 0.01% BRIJ™-35 in a 384-well assay plate. The assay was carried out in the presence of the FAK at 1 nM and ATP at 6.8 μM using fluorescein-polyGT (0.2 μM) as an FAK substrate. Each assay mixture was incubated at room temperature for 30 min. A LANTHASCREEN Tb-PY20 antibody was added to each well to stop the enzymatic reaction. The plate was incubated at room temperature for 60 min before reading on an ENVISION using TR-FRET module (excitation at 340 nm and emission at 520 nm and 495 nm).", "note": "pIC50: −log10 of the molar value.", "data": [{"compound": "Cc1cc(Cc2ncc(C(F)(F)F)c(NCC3C=C(N(C)S(C)(=O)=O)CCC3)n2)ccc1OCCOCCOCCOc1ccc2c(c1)C(=O)N(C1CCC(=O)NC1=O)C2=O", "note": "(stereo unspecified) [US20250214967, Compound A2]", "values": [{"measurement": "pIC50", "value": 8.52}]}]}
